Laboratory results from US20150336977A1 (B.G. NEGEV TECHNOLOGIES AND APPLICATIONS LTD., priority 2013, published 2015).
pIC50: −log10 of the molar value. Like-named read-outs stand apart in the source and are kept apart here.

System: MCF-7 cells
Assay: MTT proliferation assay in estrogen-dependent MCF-7 breast cancer cells
Assay type: cell-based
Details: for estrogenic activity relative to natural compound 1: comparison with coumestrol (compound 1)
Procedure: MCF-7 cells and MDA-MB-231 cells were maintained in Costar T75 flasks with Dulbeccos Modified Eagle Medium (DMEM) supplemented with 2 mM glutamine and 10% fetal bovine serum (Biological Industries Beit Haemek, LTD).
To deplete cells of estrogens, they were passaged for 1 week in phenol red-free DMEM supplemented with 10% estrogen-depleted calf serum (DCS/MEM) which was made by sequential treatment of calf serum with sulfatase and dextran-coated charcoal (Biological Industries Beit Haemek, LTD).
MCF-7 and MDA-MB-231 cells were plated in 96 well dishes (Costar) at approximately 5,000 cells/well and 2500 cells/well respectively in 100 ul medium. One day after plating (Day 0) 100 μl of the treatment media were added.
Final volume in each well was 200 μl. Each chemical was diluted to a final concentration of 10^−3M. At day 0 compounds 1 and 8b-8m (table 1) were diluted aside and 100 μl from each dilution were added to each well. The following dilution steps were performed: 2×10^−6M (4 μl of 10^−3M in 2 mL), 2×10^−7 M (200 μl of 2×10^−6M in 2 mL), 2×10^−8M (200 μl of 2×10^−7M in 2 mL) and 2×10^−9M (200 μl of 2×10^−8M in 2 mL).
Cell proliferation was quantified by colorimetric MTT assay. The use and validity of the MTT assay in MCF-7 cells is described by Martikainen et al.
Measurement of cell viability and proliferation were based on the reduction of tetrazolium salts using the MTT kit (Biological Industries Beit Haemek, LTD) according to the manufacturer instructions. The yellow tetrazolium MTT (3-(4,5-dimethylthiazolyl-2)-2,5-diphenyltetrazolium bromide) is reduced by metabolically active cells, in part by the action of dehydrogenase enzymes, to generate reducing equivalents such as NADH and NADPH. The resulting intracellular purple formazan can be solubilized and quantified by spectrophotometric means. The MTT Reagent yields low background absorbance values in the absence of cells. MTT assay was used to evaluate cell number in each well.

[1] = Homo sapiens, MCF7, cell proliferation effect on MCF-7 cell line (estrogen dependent cells), MTT, NA = Not Active, read-out: IC50
[2] = Homo sapiens, MCF7, MCF-7 breast cancer cells, read-out: IC50 value

pIC50 [1]	pIC50 [2]	Structure (SMILES)	estrogenic activity relative to natural compound 1	also measured
7.52	7.52	CC(=O)Nc1ccc2c(c1)oc1c3ccc(O)cc3oc(=O)c21 [Compound 8g]	–	–
8.05	> 9.00	CC(=O)Nc1ccc2oc3c4ccc(O)cc4oc(=O)c3c2c1 [Compound 8h, 8-acetamidecoumestrol]	–	–
6.97	6.97	O=c1oc2cc(O)ccc2c2oc3ccc(Br)cc3c12 [Compound 8i]	–	–
6.66	–	O=c1oc2cc(O)ccc2c2oc3ccc(F)cc3c12 [Compound 8j]	–	–
7.24	7.24	CCOC(=O)c1ccc2oc3c4ccc(O)cc4oc(=O)c3c2c1 [Compound 8k]	–	–
6.77	6.77	O=c1oc2cc(O)ccc2c2oc3ccc(C(F)(F)F)cc3c12 [Compound 8l, 3-trifluoromethylcoumestrol]	–	–
6.74	6.74	O=c1oc2cc(O)ccc2c2oc3ccc4ccccc4c3c12 [Compound 8m, napthocoumestrol]	–	–

More lines, now with the values behind:

Structure (SMILES)	pIC50 [1]	pIC50 [2]	estrogenic activity relative to natural compound 1	also measured
O=c1oc2cc(O)ccc2c2oc3cc(O)ccc3c12 [Compound 1, coumestrol]	–	–	–	pIC50 (cell proliferation effect on MCF-7 cell line (estrogen dependent cells), MTT, NA = Not Active, read-out: IC50): 7.14
O=c1oc2ccccc2c2oc3ccccc3c12 [Compound 8b]	–	–	at least one order of magnitude less active	–
O=c1oc2cc(O)ccc2c2oc3cc(O)c(O)cc3c12 [Compound 8c, 8-hydroxycoumestrol]	–	–	at least one order of magnitude less active	–
O=c1oc2ccccc2c2oc3cc(O)ccc3c12 [Compound 8d, 3-hydroxycoumestn]	6.25	–	at least one order of magnitude less active	proliferative effect on the MCF-7 cells (ER-positive breast cancer line MCF-7, result in words): did not showed any proliferative effect
O=c1oc2cc(O)ccc2c2oc3ccc(O)cc3c12 [Compound 8f]	–	–	at least one order of magnitude less active	–
